Assay: xn = mol fraction of the nth substance listed

CCCCOC(C)=O + CCCCCCCCCC
298.15 K, 101.3 kPa
Conditions	viscosity [mPa·s]
x1 = 0.3547	0.7515
x1 = 0.4366	0.7352
x1 = 0.5375	0.7168
x1 = 0.6473	0.7018
x1 = 0.7119	0.6958
x1 = 0.8212	0.6854
x1 = 0.9331	0.6851

CCCOC(=O)c1ccccc1 + CCCCCCCCCC
101 kPa
Conditions	viscosity [mPa·s]
298.15 K, x2 = 0.0819	2.098
298.15 K, x2 = 0.1156	2.012
298.15 K, x2 = 0.1582	1.889
298.15 K, x2 = 0.2027	1.779
298.15 K, x2 = 0.2437	1.682
298.15 K, x2 = 0.2875	1.589
298.15 K, x2 = 0.3302	1.501
298.15 K, x2 = 0.3837	1.407
298.15 K, x2 = 0.4284	1.338
298.15 K, x2 = 0.4707	1.277
298.15 K, x2 = 0.5198	1.213
298.15 K, x2 = 0.57	1.156
298.15 K, x2 = 0.6127	1.112
298.15 K, x2 = 0.7143	1.02
298.15 K, x2 = 0.773	0.977
298.15 K, x2 = 0.8262	0.94
298.15 K, x2 = 0.8749	0.914
298.15 K, x2 = 0.9333	0.887
308.15 K, x2 = 0.0562	1.757
308.15 K, x2 = 0.1002	1.658
308.15 K, x2 = 0.1418	1.569
308.15 K, x2 = 0.1788	1.495
308.15 K, x2 = 0.2302	1.4
308.15 K, x2 = 0.264	1.343
308.15 K, x2 = 0.3167	1.256
308.15 K, x2 = 0.356	1.198
308.15 K, x2 = 0.3966	1.142
308.15 K, x2 = 0.4436	1.087
308.15 K, x2 = 0.4971	1.029
308.15 K, x2 = 0.5403	0.99
308.15 K, x2 = 0.5866	0.952
308.15 K, x2 = 0.6432	0.908
308.15 K, x2 = 0.6916	0.875
308.15 K, x2 = 0.7401	0.847
308.15 K, x2 = 0.7945	0.816
308.15 K, x2 = 0.8513	0.789
308.15 K, x2 = 0.9295	0.759
318.15 K, x2 = 0.0529	1.466
318.15 K, x2 = 0.0776	1.417
318.15 K, x2 = 0.1165	1.349
318.15 K, x2 = 0.161	1.273
318.15 K, x2 = 0.2024	1.211
318.15 K, x2 = 0.2495	1.144
318.15 K, x2 = 0.2905	1.092
318.15 K, x2 = 0.3397	1.034
318.15 K, x2 = 0.3834	0.987
318.15 K, x2 = 0.432	0.94
318.15 K, x2 = 0.4779	0.899
318.15 K, x2 = 0.5308	0.857
318.15 K, x2 = 0.5771	0.824
318.15 K, x2 = 0.6312	0.79
318.15 K, x2 = 0.6794	0.763
318.15 K, x2 = 0.7616	0.722
318.15 K, x2 = 0.8328	0.693
318.15 K, x2 = 0.8708	0.679
318.15 K, x2 = 0.906	0.668

CCCCOC(C)=O + CCCCCCCCCCCC
298.15 K, 101.3 kPa
Conditions	viscosity [mPa·s]
x1 = 0.133	1.231
x1 = 0.2982	1.09
x1 = 0.4364	0.9867
x1 = 0.4791	0.9597
x1 = 0.5426	0.9188
x1 = 0.683	0.8358
x1 = 0.7904	0.7782
x1 = 0.8705	0.7393
x1 = 0.9238	0.7176
x1 = 0.9757	0.6938

CCCOC(=O)c1ccccc1 + CCCCCCCCCCCC
101 kPa
Conditions	viscosity [mPa·s]
298.15 K, x2 = 0.0304	2.294
298.15 K, x2 = 0.0721	2.175
298.15 K, x2 = 0.1434	2.021
298.15 K, x2 = 0.1817	1.949
298.15 K, x2 = 0.2145	1.892
298.15 K, x2 = 0.3444	1.688
298.15 K, x2 = 0.3881	1.634
298.15 K, x2 = 0.4343	1.583
298.15 K, x2 = 0.4851	1.537
298.15 K, x2 = 0.5395	1.494
298.15 K, x2 = 0.5883	1.458
298.15 K, x2 = 0.6355	1.431
298.15 K, x2 = 0.6936	1.402
298.15 K, x2 = 0.7544	1.38
298.15 K, x2 = 0.8162	1.368
298.15 K, x2 = 0.8809	1.358
298.15 K, x2 = 0.9435	1.354
308.15 K, x2 = 0.0462	1.805
308.15 K, x2 = 0.0938	1.716
308.15 K, x2 = 0.1234	1.663
308.15 K, x2 = 0.1581	1.608
308.15 K, x2 = 0.1951	1.553
308.15 K, x2 = 0.237	1.499
308.15 K, x2 = 0.2799	1.449
308.15 K, x2 = 0.3153	1.411
308.15 K, x2 = 0.359	1.37
308.15 K, x2 = 0.4106	1.326
308.15 K, x2 = 0.4473	1.299
308.15 K, x2 = 0.4959	1.267
308.15 K, x2 = 0.5498	1.236
308.15 K, x2 = 0.6007	1.21
308.15 K, x2 = 0.6592	1.191
308.15 K, x2 = 0.7183	1.172
308.15 K, x2 = 0.7624	1.163
308.15 K, x2 = 0.8324	1.153
308.15 K, x2 = 0.9146	1.146
318.15 K, x2 = 0.026	1.532
318.15 K, x2 = 0.0634	1.473
318.15 K, x2 = 0.0967	1.423
318.15 K, x2 = 0.1355	1.371
318.15 K, x2 = 0.1705	1.328
318.15 K, x2 = 0.2119	1.28
318.15 K, x2 = 0.2499	1.242
318.15 K, x2 = 0.2955	1.201
318.15 K, x2 = 0.3358	1.168
318.15 K, x2 = 0.4031	1.12
318.15 K, x2 = 0.4279	1.105
318.15 K, x2 = 0.48	1.077
318.15 K, x2 = 0.5272	1.055
318.15 K, x2 = 0.5827	1.033
318.15 K, x2 = 0.6342	1.015
318.15 K, x2 = 0.6953	0.997
318.15 K, x2 = 0.7509	0.985
318.15 K, x2 = 0.8169	0.975
318.15 K, x2 = 0.8761	0.968

Reference: the CheMixHub viscosity set
